In PubChem BioAssay (NCI) one finds TGI data, which are given here for eight molecules.

SMILES strings stand for the structures.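 Cells were grown in 96-well plates and exposed to each compound for 48 hours at five concentrations; endpoints were interpolated linearly between bracketing concentrations, or set to the highest concentration if not reached. TGI marks complete inhibition of growth.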

Test systems include MALME-3M melanoma; NCI-H226 lung; HOP-92 NSCLC; M14 melanoma; HT29 colon; BT-549 breast; DU-145 prostate; MDA-N; NCI/ADR-RES ovarian; SK-MEL-5 melanoma.
Assay in all cases: NCI-60 cell line screen, 48 h

For `COc1ccc(C=Nc2ccc(-c3nc4ccccc4s3)cc2)cc1OC`, the TGI in the assay on MALME-3M melanoma was 89.2 µM; in the assay on NCI-H226 lung, 85.4 µM; in the assay on HOP-92 NSCLC, 53.5 µM; in the assay with M14 melanoma it was over 100 µM; in the assay with HT29 colon, over 100 µM; in the assay on BT-549 breast, over 100 µM. Also, the TGI in the assay on DU-145 prostate was over 100 µM; in the assay on MDA-N, 99 µM; in the assay with NCI/ADR-RES ovarian it was 89.8 µM; in the assay on SK-MEL-5 melanoma it was 30.8 µM.

Turning to `CC(=N/NC(=S)N1CCCCCC1)/C(C)=N\NC(=S)N1CCCCCC1`, the TGI in the assay on MALME-3M melanoma was 11.1 µM; with NCI-H226 lung, 9.23 µM; in the assay on HOP-92 NSCLC, 2.77 µM; in the assay on M14 melanoma, 57.9 µM; with HT29 colon, 7.08 µM; in the assay on BT-549 breast, 11 µM. For the same molecule, the TGI was 8.66 µM in the assay with DU-145 prostate, over 100 µM in the assay with MDA-N, 16.8 µM with NCI/ADR-RES ovarian and 10.8 µM with SK-MEL-5 melanoma.

`O=c1oc2ccc([N+](=O)[O-])cc2nc1/C=C(\O)c1ccccc1`: the TGI in the assay on MALME-3M melanoma, in the assay on NCI-H226 lung, in the assay on HOP-92 NSCLC, with M14 melanoma, with HT29 colon and in the assay on BT-549 breast was over 100 µM each time. Also, the TGI in the assay on DU-145 prostate, in the assay with MDA-N, in the assay on NCI/ADR-RES ovarian and in the assay with SK-MEL-5 melanoma was over 100 µM throughout.

As for `Cc1cc(OCc2nc(N)nc(N)c2-c2ccc(Cl)c(Cl)c2)ccc1[N+](=O)[O-]`, the TGI in the assay with MALME-3M melanoma was 29.5 µM; in the assay with NCI-H226 lung, 28.6 µM; in the assay with HOP-92 NSCLC, over 60 µM; with M14 melanoma it was 10.7 µM; with HT29 colon it was 18.1 µM; with BT-549 breast, 12.2 µM. In addition, the TGI was over 65 µM in the assay with DU-145 prostate, 22.9 µM in the assay on MDA-N, 18.6 µM in the assay on NCI/ADR-RES ovarian and 15 µM in the assay with SK-MEL-5 melanoma.

For the molecule `CN(C)c1ccc(/C=C/C(=O)c2cc(C(C)(C)C)c(O)c(C(C)(C)C)c2)cc1`, the TGI was over 100 µM in the assay with MALME-3M melanoma; over 65.9 µM with NCI-H226 lung; over 100 µM in the assay with HOP-92 NSCLC; over 51.7 µM with M14 melanoma; over 30.2 µM in the assay with HT29 colon; over 100 µM with BT-549 breast. For the same molecule, the TGI with DU-145 prostate worked out at 6.8 µM; with MDA-N, 0.69 µM; in the assay on NCI/ADR-RES ovarian, 6.64 µM; with SK-MEL-5 melanoma it was 16.5 µM.

For `CN1C(=O)N(C)C2(CCN(CC(CC3OCCO3)c3ccc(F)cc3)CC2)C1=O` (stereo not given), the TGI in the assay on MALME-3M melanoma, in the assay with NCI-H226 lung, with HOP-92 NSCLC, in the assay with M14 melanoma, in the assay on HT29 colon and with BT-549 breast was over 100 µM throughout. Besides, the TGI in the assay on DU-145 prostate, with MDA-N, with NCI/ADR-RES ovarian and in the assay with SK-MEL-5 melanoma was over 100 µM in each case.

For the molecule `C=C1C(=O)OC2C1CCC(=C)C1CC(O)C(=C)C12` (stereo not given), the TGI with MALME-3M melanoma was 30.1 µM; in the assay on NCI-H226 lung, over 63.1 µM; in the assay with HOP-92 NSCLC it was 11.3 µM; in the assay with M14 melanoma, 41 µM; in the assay with HT29 colon, 19.3 µM; in the assay with BT-549 breast, 30.4 µM. For the same molecule, the TGI in the assay with DU-145 prostate stood at 29 µM; in the assay on MDA-N it was 26.7 µM; in the assay with NCI/ADR-RES ovarian, 54.9 µM; in the assay on SK-MEL-5 melanoma it was 30.6 µM.

As to `CC(=O)N1C(C(=O)NN2CCOCC2)CSC1c1ccccc1` (stereo not given), the TGI in the assay on MALME-3M melanoma, in the assay on NCI-H226 lung, with HOP-92 NSCLC, in the assay with M14 melanoma, with HT29 colon and in the assay with BT-549 breast was over 100 µM each time. Also, the TGI with DU-145 prostate, with MDA-N, with NCI/ADR-RES ovarian and in the assay on SK-MEL-5 melanoma was over 100 µM throughout.
